From patent US10183015B2, “Heterocyclic compounds and methods of use” (Medivation Technologies LLC, priority 2015, dated 2019)
Where “and” joins values, the source holds several entries; their conditions need not be identical. Equal entries are not always repeated.

What was measured:
SCAP = assay: Short-term Paigen-diet NASH mouse model: hepatic SCAP gene expression (RT-qPCR); assay type: in vivo; conditions: liver, 21 days; for DDct: SCAP Dct relative to vehicle mean; for Dct: SCAP minus 18S; for 2DDct: SCAP relative expression to vehicle group, normalized to 18S; for SCAP: raw RT-qPCR value
Protocol: (§1) To investigate whether Compound #37 prevents the development of pathology associated with NASH and steatosis in an acute exploratory disease model, a study was conducted using a diet-induced acute liver steatosis model in mice. As described below, in this study, C57BL/6J mice were initiated on the Paigen diet and simultaneously treated with Compound #37 (5, 20, and 40 mg/kg/day) or vehicle control (20% HPβCD 10 mL/kg/day) by oral gavage for 21 days.
(§2) After acclimation, 8-week old male C57Bl/6J mice (Charles River) weighing about 25 g were randomized in 4 groups according their body weight and treated once daily around noon by oral gavage with vehicle, or Compound #37 at various for 21 days as follows: Group 1: vehicle-20% (2-hydroxypropyl)-β-cyclodextrin (HP-β-CD) (n=10); Group 2: Compound #37, 5 mg/kg (n=10) Group 3: Compound #37, 20 mg/kg (n=10) Group 4: Compound #37, 40 mg/kg (n=10). During the treatment period, body weight and food intake (measured over 24h) were measured 3 times per week and once a week, respectively. During the acclimation, all mice were fed a standard diet (Special Diets Services RM1 (E), product no. 801492) and tap water ad libitum. After the acclimation period, mice were fed until the end of the experiment with a 60% high fat Paigen diet (60 kcal % fat, 1.25% cholesterol, and 0.5% cholate; D11061901, Research Diet) and tap water ad libitum.
(§3) Gene expression analysis. Hepatic expression levels of genes involved in lipid metabolism (FAS, SREBP1, ACC1, SCD1), cholesterol metabolism (HMG-CoAR, LDLR), SREBP proteolysis (SCAP, INSIG1), ER stress (PERK), oxidative stress (NRF2), inflammation (MCP-1), and fibrosis (collagen 1α1) were quantified by RTqPCR. Expression level was normalized to 18S gene expression and relative expression to vehicle group was calculated with the […] method.

SCD1 = assay: Short-term Paigen-diet NASH mouse model: hepatic SCD1 gene expression (RT-qPCR); assay type: in vivo; conditions: SCD1 relative expression to vehicle group, 21 days
Protocol: as §1, §2, §3

leptin = assay: DIN mouse model: plasma leptin; assay type: in vivo; conditions: for plasma leptin day 70: day 70, 20 mg/kg
Protocol: Male C57Bl/6J mice (8 weeks old) were housed in enriched ventilated cages (31×12.5×12.7 cm) throughout the experimental phase. Animals' cages litters were changed at least once a week. Animal were housed 5 per cage on inverted 12-hour light cycle (at 09:00 am lights off), 22±2° C. and 55±10% relative humidity. The acclimation period was 20 days. During the acclimation period, all mice were fed a standard diet (RM1 (E) 801492, SDS) and tap water ad libitum. After the acclimation period, mice were fed with the DIN diet (60% fat, cholesterol enriched) and fructose-enriched tap water ad libitum until the end of the experiment.
At 6 weeks of diet, mice were 4-hour fasted (09:00 am to 1:00 pm) and blood (150 μl/EDTA) was collected at 01:00 pm by retro-orbital bleeding under isoflurane anesthesia. Mice were then allocated in 2 homogenous groups (n=12/group) according to their plasma levels of ALT (average levels: 685U/L), AST (average levels: 627U/L) and HOMA-IR index (average value: 4.7), into 2 homogenous groups (see values at day 0 in Tables 15A and 15B ALT/AST and Tables 16A and 16B for HOMA-IR). Mice were then treated once daily by oral gavage with vehicle (Group 1) or Compound #37 at 20 mg/kg (Group 2) for 70 days.
To investigate whether Compound #37 improves pre-existing steatosis/NASH pathology, a study was conducted using a 16-week diet-induced NASH mouse model. In this model, mice develop steatosis that progresses with inflammation and fibrosis that mimic many of the observed pathologies in human nonalcoholic fatty liver disease (NAFLD) and NASH (Hebbard & George, 2010). For 6 weeks, mice were fed a high-fat, high-cholesterol diet and provided drinking water containing fructose to induce liver pathology (Charlton et al, 2011). […]

ob/ob mice = assay: ob/ob mice: plasma triglycerides, non-esterified fatty acids, total cholesterol, insulin; assay type: in vivo, mouse; conditions: 8 weeks
Protocol: Groups of mice were either untreated (group 1) or treated for 8 weeks with vehicle (group 2), or with Compound #37 at 5 mg/kg (group 3), 10 mg/kg (group 4), or 20 mg/kg (group 5). Treatment was daily by oral gavage in vehicle (20% HPβCD). Values are presented as mean±standard error of the mean (sem). A t test was performed to compare the untreated group and the vehicle group. Then Compound #37-treated groups were compared to the vehicle-treated group with a 1-way ANOVA+Dunnett's post-test. […] For each test, a p<0.05 was considered significant. Of note, animal #39, group 1 was excluded from the statistical analysis, due to low values for all parameters measured. Some other values were considered as out-liners and excluded from the statistical analysis when the value was far below the mean minus 2 SD. Excluded values are marked with an asterisk in Tables 21-23.

[1] = Compound #37 5 mg/kg, group mean, n=10
[2] = Compound #37 5 mg/kg, individual animals, 5 mg/kg
[3] = Compound #37 20 mg/kg, group mean, n=6
[4] = Compound #37 20 mg/kg, individual animals, 20 mg/kg
[5] = 5 mg/kg daily oral gavage, group mean
[6] = 5 mg/kg daily oral gavage, individual animal values, 5 mg/kg
[7] = 10 mg/kg daily oral gavage, group mean
[8] = 10 mg/kg daily oral gavage, individual animal values, 10 mg/kg
[9] = 20 mg/kg daily oral gavage, group mean
[10] = 20 mg/kg daily oral gavage, individual animal values, 20 mg/kg

Q: Which results are given for `CC(C)Cc1cc(-c2nc(-c3ccc(NS(=O)(=O)C(F)(F)F)cc3Cl)cs2)ccn1` [Compound 37, N-(3-chloro-4-(2-(2-isobutylpyridin-4-yl)thiazol-4-yl)phenyl)-1,1,1-trifluoromethanesulfonamide]?
A: DDct (SCAP; [1]): 0.19; DDct (SCAP; [2]): −0.7 and 0.72 and −0.1 and −0.18 and 1.21 and 0.7 and 0.27 and −0.21 and −0.02 and 0.17; DDct (SCAP; [3]): 0.07; DDct (SCAP; [4]): 0.6 and 0.83 and 0.33 and −1.29 and 0.9 and −0.94; Dct (SCAP; [1]): 12.8; Dct (SCAP; [2]): 11.96 and 13.38 and 12.56 and 12.48 and 13.87 and 13.36 and 12.93 and 12.45 and 12.64 and 12.83; Dct (SCAP; [3]): 12.7; Dct (SCAP; [4]): 13.26 and 13.49 and 12.99 and 11.37 and 13.56 and 11.72; 2DDct (SCAP; [1]): 0.94; 2DDct (SCAP; [2]): 1.62 and 0.61 and 1.07 and 1.13 and 0.43 and 0.62 and 0.83 and 1.16 and 1.01 and 0.89; 2DDct (SCAP; [3]): 1.15; 2DDct (SCAP; [4]): 0.66 and 0.56 and 0.79 and 2.44 and 0.54 and 1.92; SCAP (SCAP; [1]): 25.1; SCAP (SCAP; [2]): 25.42 and 26.49 and 24.17 and 25.83 and 25.9 and 26.71 and 24.53 and 24.24 and 23.78 and 23.95; SCAP (SCAP; [3]): 24.9; SCAP (SCAP; [4]): 26.17 and 25.78 and 25.19 and 24.4 and 25.05 and 22.98; 2DDct (SCD1; 5 mg/kg, group mean): 1.05; 2DDct (SCD1; 5 mg/kg, individual animals, 5 mg/kg): 2.96 and 0.99 and 0.66 and 2.02 and 0.77 and 0.22 and 0.93 and 0.76 and 0.6 and 0.59; 2DDct (SCD1; 20 mg/kg, group mean): 1.18; 2DDct (SCD1; 20 mg/kg, individual animals, 20 mg/kg): 0.98 and 0.47 (2×) and 0.88 and 2.28 and 2; plasma leptin reduction (leptin; 20 mg/kg, end of the treatment period, vs. vehicle): 38%; plasma leptin day 70 (leptin; group mean, n 11): 265 pg/mL; plasma leptin day 70 (leptin; individual animals): 454 pg/mL and 330 pg/mL and 202 pg/mL and 280 pg/mL and 341 pg/mL and 144 pg/mL and 294 pg/mL and 46 pg/mL and 269 pg/mL and 374 pg/mL and 187 pg/mL; plasma insulin (ob/ob mice; [5]): 274.1 μU/mL; plasma non-esterified fatty acids (ob/ob mice; [5]): 0.7 mM; plasma total cholesterol (ob/ob mice; [5]): 1.8 g/L; plasma triglycerides (ob/ob mice; [5]): 1.6 g/L; plasma insulin (ob/ob mice; 5 mg/kg daily oral gavage, individual animal values (* = excluded from statistical analysis), 5 mg/kg): 198.7 μU/mL and 262.7 μU/mL and 181.1 μU/mL and 250.5 μU/mL and 118.7 μU/mL and 394.6 μU/mL and 24.6* μU/mL and 374.6 μU/mL and 512.6 μU/mL and 173.1 μU/mL; plasma non-esterified fatty acids (ob/ob mice; [6]): 1.028 mM and 0.77 mM and 0.616 mM and 0.552 mM and 0.68 mM (2×) and 1.092 mM and 0.783 mM and 0.655 mM and 0.539 mM; plasma total cholesterol (ob/ob mice; [6]): 1.587 g/L and 1.903 g/L and 1.916 g/L and 1.853 g/L and 2.017 g/L and 1.537 g/L and 2.08 g/L and 1.625 g/L and 1.347 g/L and 1.638 g/L; plasma triglycerides (ob/ob mice; [6]): 1.283 g/L and 1.152 g/L and 1.038 g/L and 1.397 g/L (2×) and 1.593 g/L and 1.201 g/L and 1.609 g/L and 2.408 g/L and 2.504 g/L; plasma insulin (ob/ob mice; [7]): 357.3 μU/mL; plasma non-esterified fatty acids (ob/ob mice; [7]): 0.7 mM; plasma total cholesterol (ob/ob mice; [7]): 1.7 g/L; plasma triglycerides (ob/ob mice; [7]): 1.3 g/L; plasma insulin (ob/ob mice; [8]): 123.8 μU/mL and 457.7 μU/mL and 81.9 μU/mL and 949.0 μU/mL and 153.3 μU/mL and 62.6 μU/mL and 508.2 μU/mL and 904.4 μU/mL and 194.4 μU/mL and 137.5 μU/mL; plasma non-esterified fatty acids (ob/ob mice; [8]): 1.009 mM and 0.474 mM and 0.828 mM and 0.7 mM and 0.564 mM and 0.951 mM and 0.738 mM and 0.661 mM and 0.809 mM and 0.307 mM; plasma total cholesterol (ob/ob mice; [8]): 1.587 g/L and 1.865 g/L (2×) and 1.891 g/L (2×) and 1.827 g/L (2×) and 1.234 g/L and 1.651 g/L and 1.183 g/L; plasma triglycerides (ob/ob mice; [8]): 0.94 g/L and 1.12 g/L and 0.875 g/L and 1.218 g/L and 1.528 g/L and 1.299 g/L and 1.968 g/L and 1.381 g/L and 1.593 g/L and 0.777 g/L; plasma insulin (ob/ob mice; [9]): 444.1 μU/mL; plasma non-esterified fatty acids (ob/ob mice; [9]): 0.5 mM; plasma total cholesterol (ob/ob mice; [9]): 1.5 g/L; plasma triglycerides (ob/ob mice; [9]): 1.5 g/L; plasma insulin (ob/ob mice; [10]): 447.3 μU/mL and 10.5 μU/mL and 730.1 μU/mL and 505.0 μU/mL and 254.3 μU/mL and 881.0 μU/mL and 810.7 μU/mL and 483.7 μU/mL and 62.6 μU/mL and 256.2 μU/mL; plasma non-esterified fatty acids (ob/ob mice; [10]): 0.429 mM and 0.642 mM and 0.494 mM and 0.481 mM and 0.423 mM (2×) and 0.513 mM and 0.397 mM and 0.687 mM and 0.597 mM; plasma total cholesterol (ob/ob mice; [10]): 1.234 g/L and 0.893 g/L and 1.499 g/L and 1.714 g/L and 1.663 g/L (2×) and 1.625 g/L and 1.587 g/L and 1.36 g/L and 1.272 g/L; plasma triglycerides (ob/ob mice; [10]): 0.875 g/L and 1.886 g/L and 1.511 g/L (2×) and 1.642 g/L and 1.854 g/L and 1.283 g/L and 1.308 g/L and 1.381 g/L and 1.968 g/L
